The values that follow come from patent US5545667A, “Methods for treating neoplasms with betaines” (The Clorox Company, priority 1994, dated 1996).

pIC50: −log10 of the molar value. Counter-ions that a name gives are not always drawn.

Data set [1] has as its system HeLa cells, DNA synthesis. Description: DNA synthesis in HeLa cells (3H-thymidine). It is filed as cell-based. The procedure:
(§1) The 16-5B compound was evaluated further using HeLa cells to gain some insight into the mechanism of action of this group of compounds. In these studies, the ability of this compound to inhibit macromolecular synthesis in the cells was examined. The effects of 16-5B on DNA, RNA and protein synthesis was monitored using labeled thymidine, uridine or leucine, respectively. These precursors readily incorporate into the appropriate cellular macromolecules in the cells.
(§2) For assays of macromolecular biosynthesis in HeLa cells, cells were seeded into 60 mm culture dishes (Falcon Labware, Lincoln Park, N.J.) at a density 1×10^5 /ml in 5 mls of cell culture medium. Cells were allowed to grow at 37° C. for 48 hours before use. Culture plates were then removed from the incubator and washed with phosphate buffered saline. The cells were then incubated with increasing concentrations of the 16-5B in 2 ml of serum-free Dulbecco's modified Eagle's medium supplemented with 0.075% sodium bicarbonate. Control cultures were incubated in cell culture medium without surfactant. […] Two 0.5 ml aliquots were neutralized and counted for radioactivity using a scintillation counter.

Data set [2] concerns NIH 3T3 cells. The data set is described as follows: Cell growth inhibition assay, NIH 3T3. Format: cell-based, mouse. The following applies: NIH3T3; NIH 3T3 mouse fibroblasts; 3-4 days; read-out: IC50 (uM conc. inhibiting growth of the cells by 50%). The procedure:
(§3) Established cell lines are the system of choice for the prescreening of unknown compounds for antineoplastic activity. The tumor cell line screen works on the following principle. Cancer cells, if provided with enough nutrients, will grow unchecked in vitro, allowing researchers to grow many types of cancer cells outside the body. To perform an assay, standard amounts of the various cancer cells are placed in individual wells of a microtiter plate, and incubated with the potential antineoplastic compound of interest, for a sufficient period of time to allow for at least a 6-fold control growth, generally 1 to 5 days depending on cell origin. At the end of the incubation period, the cell lines are stained and assayed by a variety of means including, for example, proteins stains or a colorimeter for normal growth, growth inhibition or cytotoxicity. These assays measure a compound's ability to inhibit cell growth and a positive response of the compounds in these assays would be indicative of the therapeutic potential of these compounds. See, for example, the protocols and data presented in Laskin et al., (1979) Cancer Res 39:383-390 for 5-fluorouracil in mouse and human cells in culture.
(§4) A total of ten cell lines were used to evaluate the growth inhibitory potency of the various surfactants. In these studies, human, rat, mouse and bovine cells were used. A spectrum of different tumor cell types were used including those derived from keratinocytes (PAM 212), leukemias (HL-60, U-937 and K-562), an epitheloid carcinoma (HeLa) and melanoma (B-16). The B16 melanoma was used since this is a common cell type used to evaluate antimetastatic activity of test compounds. The effect of the surfactants on three fibroblast cell lines (C3H 10T1/2, NIH 3T3 and R6) were also evaluated for comparison to the tumor cell lines. The activity of the surfactants was also evaluated using pulmonary aortic endothelial cells for effectiveness as antiangiogenic agents.
(§5) PAM 212 cells are a mouse keratinocyte-derived tumor cell line. U-937 cells are a human histiocytic tumor cell line. HeLa cells are an epitheloid tumor cell line. Three murine fibroblast cells lines tested included the mouse fibroblast cell line, C3H 10T1/2, the rat fibroblast cell line R6, and the NIH 3T3 mouse fibroblast cell line. The human leukemia cell line HL-60 and the mouse melanoma B-16 cell were also tested. K-562 cells were from the American Type Culture Collection. All cells were grown in Dulbecco's modified Eagle's medium in a 37° C. incubator in an atmosphere of 5% CO2.
(§6) For growth inhibition assays, cells were seeded at low density (2.5×10^4 cells in 0.5 ml of culture medium) into 24-well tissue culture plates (Falcon Labware, Lincoln Park, N.J.). After 24 hours at 37° C., increasing concentrations (1 to 100 uM) of the surfactants were added to the cells in the culture plate. Control cultures were incubated in the absence of any surfactant. The cells were then incubated for 3-4 days to allow for growth. Cells from individual wells in the culture plate were then removed and duplicate samples taken for counting using a Coulter counter. To remove adherent cells the plates were treated with 0.25% trypsin/0.2% EDTA (GIBCO, Grand Island, N.Y.).

In data set [3] the test system is R6 cells. The data set is described as follows: Cell growth inhibition assay, R6. Format: cell-based, rat. The following applies: Fibroblast; R6 rat fibroblasts; 3-4 days; read-out: IC50 (uM conc. inhibiting growth of the cells by 50%). The procedure:
as §3, §4, §5, §6

Data set [4] deals with K-562 cells. The data set is described as follows: Cell growth inhibition assay, K-562. It is filed as cell-based. The following applies: Homo sapiens, K562; K-562 leukemia cells; 3-4 days; read-out: IC50 (uM conc. inhibiting growth of the cells by 50%). On the procedure:
as §3, §4, §5, §6

In data set [5] the test system is B-16 cells. The data set is described as follows: Cell growth inhibition assay, B-16 melanoma. Format: cell-based, mouse. The following applies: B16; B-16 mouse melanoma cells; 3-4 days; read-out: IC50 (uM conc. inhibiting growth of the cells by 50%). On the procedure:
as §3, §4, §5, §6

The test system of data set [6] is HeLa cells, RNA synthesis. Description: RNA synthesis in HeLa cells (3H-uridine). The following applies: Homo sapiens, FIG. 2, 2 hours 3H-uridine, read-out: IC50 for uridine uptake (RNA synthesis). It is filed as cell-based. On the procedure:
as §1, §2

Data set [7] deals with PAM 212 cells. Description: Cell growth inhibition assay (surfactants, 3-4 days, Coulter counter), PAM 212. The following applies: PAM212; PAM 212 mouse keratinocyte-derived tumor cells; 3-4 days; read-out: IC50 (uM conc. inhibiting growth of the cells by 50%). Format: cell-based, mouse. The procedure: as §3, §4, §5, §6
Data set [8] concerns C3H 10T1/2 cells. The data set is described as follows: Cell growth inhibition assay, C3H 10T1/2. Format: cell-based, mouse. The following applies: C3H 10T1/2 mouse fibroblasts; 3-4 days; read-out: IC50 (uM conc. inhibiting growth of the cells by 50%). The procedure: as §3, §4, §5, §6
In data set [9] the test system is ten cell lines. The data set is described as follows: Cell growth inhibition assays, panel of cell lines. Format: cell-based, human, rat, mouse and bovine.
Description: as §4, §5, §6

Data set [10] concerns HeLa cells, protein synthesis. The data set is described as follows: Protein synthesis in HeLa cells (3H-leucine). Format: cell-based. The following applies: Homo sapiens, FIG. 2, 4 hours 3H-leucine, read-out: IC50 for leucine uptake (protein synthesis). On the procedure:
as §1, §2

The nature of data set [11]: Critical micelle concentration (cmc). It is filed as physicochemical. An excerpt:
"Critical micelle concentration" or "cmc" refers to the point at which micelle formation begins.

Data set [12] has as its system CPA-5 cells. Description: Cell growth inhibition assay, CPA-5 endothelial cells. Format: cell-based, bovine. The following applies: Bos taurus, CPA-5 bovine aortic endothelial cells, 3-4 days, read-out: IC50 (uM conc. inhibiting growth of the cells by 50%).
Description: as §4, §5, §6
The compounds were tested as inhibitors of growth in the bovine aortic endothelial cell line CPA-5 as taught in Example 2 in order to evaluate the possibility that they may be anti-angiogenesis agents. A hallmark of angiogenesis is the outgrowth of endothelial cells which are required in the formation of new blood vessels. This process is a critical factor in the vascularization of tumors. Inhibition of neovascularization limits the growth of tumors and would be an effective means of treating cancer. FIG. 3 illustrates that three of the compounds, 8-3S, 12-5B and 12-1B, had no activity against the CPA-5 cell line in the concentration range tested (IC50 =>100 uM), while only relatively high concentrations of 12-3S (IC50 =70 uM) were effective in inhibiting the growth of CPA-5 cells. As indicated above, with several exceptions, these compounds were also not very effective in inhibiting the growth of each of the other cell types.

Data set [13] relates to HL-60 cells. The data set is described as follows: Cell growth inhibition assay, HL-60. Format: cell-based, human. On the procedure:
as §3, §4, §5, §6

In data set [14] the test system is alloreactive Tc cells. The following applies: dosages between 10 ng/ml and 100 ug/ml; WO85/05031; cited from earlier work.

Broadly, the pIC50 is the negative decadic logarithm of the IC50, by convention in mol/L. One may read the IC50 as the concentration at which inhibition is half-maximal.

Consider `CCCCCCCCCCCCCCCC[N+](C)(C)CCCCCC(=O)[O-]` [16-5B, N-(5-carboxypentyl)-N,N-dimethyl-1-hexadecanaminium hydroxide inner salt], for which the “selective inhibition of macromolecular synthesis” value in data set [1] (DNA, RNA and protein synthesis compared) is “does not appear to selectively inhibit any of these processes”. In addition, the negative-log IC50 (pIC50) is 4.52 in data set [1] (Homo sapiens, FIG. 2, 1 hour 3H-thymidine, read-out: IC50 for thymidine uptake (DNA synthesis)); 4.52 in data set [6]; 4.28 to 6.30 in [9] (all / all other cell lines tested, read-out: IC50 over the cell lines tested (range or bound)); 4.52 in data set [10]. Also, the IC50 in data set [2] was 24 µM; in data set [3] it was 18 µM; in [4] it was 5.5 µM; in data set [5] it was 20 µM; in data set [7], 6 µM; in data set [8], 53 µM. In addition, the IC50 came to 18 µM in [12] and 0.5 µM in data set [13] (HL-60 human leukemia cells, 3-4 days, read-out: IC50 (uM conc. inhibiting growth of the cells by 50%)). The “fold concentration required to inhibit K-562 and U-937 growth relative to HL-60” value in [9] (K-562 and U-937 versus HL-60) is “approximately ten”. Besides, the “fold concentration range spanned by the IC50's” value in [9] (across cell lines) came to 100 fold. The “activity against all of the cell lines tested” value in data set [9] (growth inhibition) is reported as “considerable activity against all of the cell lines tested”. Further, the cmc in data set [11] turned out to be 10 µM. Further, in [13] (HL-60 versus other leukemia cells), the “fold greater sensitivity of HL-60 among the leukemia cells” value was 10 to 100 fold.

As for `CCCCCCCCCCCC[N+](C)(C)CCCCCCCCCCCC.[Br-]` [didodecyl dimethyl ammonium bromide], the “immunosuppressive on alloreactive Tc cells” value in data set [14] is “immunosuppressive on alloreactive Tc cells”.
